This note sets out measurements from patent publication US9738684B2, “N-terminally modified linear and branched polyamine conjugated peptidomimetics as antimicrobials agents” (COUNCIL OF SCIENTIFIC & INDUSTRIAL RESEARCH, priority 2015, dated 2017).

Converted amounts (≈) assume the structure as drawn.

Data set [1] has as its system Gram-positive bacterial strains. The data set can be described thus: Antibacterial activity. Type of data set: cell-based. The procedure: (§1) Following bacterial strains were used in this study: S. aureus (ATCC 29213), methicillin resistant S. aureus (ATCC 33591), Staphylococcus epidermidis (ATCC 12228), methicillin resistant Staphylococcus epidermidis(ATCC 51625), Enterococcus faecalis (ATCC 7080), Escherichia coli (ATCC 11775), and Acinetobacter baumannii (ATCC 19606). Antibacterial activity was evaluated using a modified serial broth dilution method in accordance with Clinical Laboratory Standard Institute guidelines [Methods for dilution antimicrobial susceptibility tests for bacteria that grow aerobically-7th ed. Approved standard M7-A7. Clinical and Laboratory Standards Institute, Wayne, Pa., Biochim. Biophys. Acta 1798:1864-1875, 2010.]. Briefly, the inoculums were prepared from mid-log phase bacterial cultures. Peptidomimetics were incubated with bacterial suspension in Muller Hinton broth media (10^5 CFU/mL) in 96 well microtitre plate. The plates were incubated overnight with agitation (200 rpm) at 37° C. After 18 h, absorbance was measured at 630 nm. Cultures without test peptidomimetics were used as positive control. Un-inoculated Mueller Hinton Broth (MHB) was used as negative control. Tests were carried out in duplicate on at least three different days. […] For comparison standard peptide antibiotics vancomycin (VAN) and polymyxin B (PMB) were also assayed under identical conditions (Table 2). […] Further, antibacterial activity of active peptidomimetics 1c and 1d were also evaluated against MRSA in presence of 25% v/v human serum as well as bovine serum.

For data set [2], the system named is human red blood cells (hRBC). The data set is described as follows: Hemolytic activity. Type of data set: cell-based. The note with it: 250 μg/mL, 1 h at 37° C. The procedure: Hemolytic activity of the peptidomimetics was evaluated on human red blood cells (hRBC) as described previously with minor modifications [FEBS J, 273:4040-4054, 2006; Biochim Biophys Acta., 1798:1864-1875, 2010]. Briefly, 100 μL of fresh hRBC suspension 4% v/v in NaCl/Pi (35 mM phosphate buffer, 150 mM NaCl, pH 7.2) was placed in a 96-well plate. After incubation of the peptidomimetics (100 μL) in the hRBC suspension for 1 h at 37° C., the plates were centrifuged and supernatant (100 μL) was transferred to fresh 96-well plate. Absorbance was read at 540 nm using ELISA plate reader (Molecular Devices). Percent hemolysis was calculated using the following formula: % hemolysis=100[(A−A0)/(At−A0)]
Where, A represents absorbance of sample wells at 540 nm. Also A0 and At represents 0% and 100% hemolysis determined in NaCl/Pi and 1% Triton X-100, respectively (Table 2). […] Peptidomimetics 1e and 1f caused 31% and 30% hemolysis at 250 μg/mL. Peptidomimetics 2d, 2e and 2f caused significant hemolysis with 83%, 96% and 88% damage to hRBCs at […] respectively.

The test system of a further data set is MRSA. The data set can be described thus: Membrane depolarization with DiSC3(5) dye. The class given is cell-based, Staphylococcus aureus. The note with it: up to the highest concentration tested. The procedure:
For determination of membrane depolarizing ability of designed peptidomimetics, a membrane potential sensitive dye DiSC3(5) was used as described previously with minor modifications [Org Biomol. Chem. 10: 8326-8335, 2012; J. Am. Chem. Soc., 132: 18417-18428, 2010.]. Briefly, overnight grown MRSA was sub cultured into MHB for 2-3 h at 37° C. to obtain mid-log phase cultures. The cells were centrifuged at 4000 rpm for 10 min at 25° C., washed, and re-suspended into respiration buffer (5 mM HEPES, 20 mM glucose, pH 7.4) to obtain a diluted suspension of OD600˜0.05. Then DiSC3(5) [0.18 μM in DMSO], was added to 500 μL aliquotes of the re-suspended cells and allowed to stabilize for 1 h. Baseline fluorescence was acquired using a Edinburg F900 spectrofluorometer by excitation at 622 nm and emission at 670 nm in a 1 cm path length cuvette. Bandwidth of 5 nm was employed for excitation and emission. Subsequently, increasing concentrations of test peptidomimetics were added to the stabilized cells and the increase of fluorescence on account of the de-quenching of DiSC3(5) dye was measured after every 2 min to obtain the maximal depolarization. Increase in relative fluorescence unit (RFU) was plotted against increasing concentrations of different peptidomimetics or PMB. […] The increase in fluorescence for lipid tagged peptidomimetics was concentration dependent up to 9.9 μg/mL and henceforth, got saturated resulting into plateau like dose response curves. The experiment was repeated twice on two consecutive days and produced similar results.

For data set [3], the system named is methicillin resistant S. aureus (ATCC 33591). The data set is described as follows: MIC, serial broth dilution. The note with it: 18 h. Type of data set: cell-based, Staphylococcus aureus. The procedure:
(§2) The peptidomimetics designed in present invention were evaluated as antibacterial therapeutics against a broad range of bacterial strains by broth microdilution method. The antibacterial activity of the peptidomimetics was reported in terms of the minimum inhibitory concentrations (MIC).
as §1
For orientation: Broth dilution looks for growth in wells or tubes with falling amounts of substance.

The test system of a further data set is S. aureus (ATCC 29213). The data set can be described thus: MIC, serial broth dilution. The class given is cell-based, Staphylococcus aureus. The procedure:
as §2, §1

The subject of data set [4] is Staphylococcus epidermidis (ATCC 12228). The data set is described as follows: MIC, serial broth dilution. The class given is cell-based. The procedure:
as §2, §1

Data set [5] has as its system Enterococcus faecalis (ATCC 7080). The data set can be described thus: MIC, serial broth dilution. The class given is cell-based. The following applies: MHB, 18 h, 37° C. The procedure:
as §2, §1

Data set [6] relates to MRSA (ATCC 33591) biofilm. The data set can be described thus: Confocal laser scanning microscopy of biofilm, thickness by z-stacking. The note with it: for confocal observation of mature biofilm: 24 h preformed biofilm. Type of data set: cell-based, Staphylococcus aureus. An excerpt: For visualization of biofilm and validation of AB and CV assay we performed confocal microscopy. For this biofilm formation was induced on glass cover slips in a 6-well plate. The biofilm on cover slips were washed twice with sterile NaCl/Pi buffer and stained with a Live/Dead kit reagent (Invitrogen, Molecular Probes, Eugene, Oreg., USA) following the manufacturer's instructions. This stain contains DNA binding dyes SYTO 9 (green fluorescent) and propidium iodide (PI; red fluorescent). When used alone, SYTO 9 stains all bacteria in a population, those with intact as well as damaged membranes. In contrast, PI penetrates only bacteria with damaged membranes, causing a reduction in the SYTO 9 stain (green fluorescence). The biofilms were examined with an Olympus flow view FV1000 (confocal laser scanning microscope, CLSM). The experiment was repeated three times on three different days and representative data is presented here.
We next measured the thickness of biofilm using z-stacking in confocal microscopy. […] At MICb, 1c and 1d prevented formation of biofilm in which very few cells were adhered to substratum with observed average thickness of 3.9±1.1 μm and 3.5±0.6 μm, respectively. Furthermore, at sub-MICb concentration the observed thicknesses were 5.2±0.3 μm and 5.8±0.4 μm (FIG. 7A.b and FIG. 7A.d).

For data set [7], the system named is Gram-negative bacterial strains. The data set is described as follows: Antibacterial activity. Type of data set: cell-based. The procedure: as §1
A further data set deals with Staphylococcus species. The data set is described as follows: Antibacterial activity. The class given is cell-based. The procedure: as §1
The test system of data set [8] is Escherichia coli (ATCC 11775). The data set is described as follows: MIC, serial broth dilution. The class given is cell-based. The following applies: Escherichia coli, ATCC11775, 18 h, read-out: MIC E. coli. (ATCC 11775). The procedure: as §2, §1
Data set [9] deals with MRSA (ATCC 33591) biofilm. The data set is described as follows: 24 h preformed mature biofilm (alamar blue, crystal violet). Type of data set: cell-based, Staphylococcus aureus. The following applies: Staphylococcus aureus, 24 h, read-out: viable cells in 24 h pre-formed mature biofilm (alamar blue). The procedure:
To evaluate potential of designed active peptidomimetics against MRSA biofilms a methodology as used previously was employed with minor modifications [Antimicrob. Agents Chemother., 57:2726-2737, 2013]. Briefly, freshly inoculated MRSA (ATCC 33591) was grown in biofilm growth media (TSB supplemented with 0.5% w/v NaCl and 0.25% w/v glucose) overnight. Next day, the culture was diluted in fresh biofilm growth media to 10^5 CFU/mL. 200 μl of diluted culture was dispensed in wells of a 96-well polystyrene plate for biofilm formation. […] Biofilm cultures were re-incubated at 37° C. for 24 h. After removal of medium, the biofilms were further washed twice with sterile NaCl/Pi buffer and assessed for metabolic activity (alamar blue assay) and biomass quantification (Crystal violet assay).

The subject of data set [10] is methicillin resistant Staphylococcus epidermidis (ATCC 51625). The data set is described as follows: MIC, serial broth dilution. The class given is cell-based. The note with it: Staphylococcus epidermidis, ATCC 51625 / MRSE, 18 h, read-out: MIC MRSE (ATCC 51625). The procedure:
as §2, §1

In data set [11] the test system is Acinetobacter baumannii (ATCC 19606). The data set can be described thus: MIC, serial broth dilution. The note with it: Acinetobacter baumannii, ATCC19606, 18 h, read-out: MIC A. baumannii (ATCC 19606). Type of data set: cell-based. The procedure: as §2, §1
The next data set relates to S. aureus (ATCC 33591). The data set is described as follows: Resistance development study, serial passage at sub MIC. Type of data set: cell-based, Staphylococcus aureus. The following applies: 17 serial passages at sub MIC. The procedure:
FIG. 5: Illustration of resistance development study in S. aureus (ATCC 33591) after 17 serial passages with sub MIC of 1c/1d or antibiotic treatment. The fold change in MIC is the ratio of the MIC after 17 passages relative to that MIC observed before first passage.
To determine potential of active peptidomimetics against resistance development, in vitro serial passage method at sub inhibitory concentration was done. Briefly, bacterial suspension (100 μL) from duplicate wells at the concentration of sub-MIC was used to inoculate fresh culture. The culture was grown to obtain approximately 10^5 CFU/mL for the next experiment. These bacterial suspensions were then incubated with desired concentration of antibacterial agents for 18 h to determine new MIC. The same sub culturing protocol was used for next 16 passages and MIC was determined using OD630 nm as described previously in the text [Chem. Biol., 20:1286-1295, 2013.]

For a further data set, the system named is MRSA (ATCC 33591). The data set is described as follows: Planktonic MIC in biofilm media (MICb). Type of data set: cell-based, Staphylococcus aureus. The following applies: TSB with 0.5% NaCl and 0.25% glucose.

Take `NCCCNCCCCNCCCNC(=O)C(Cc1c[nH]c2ccccc12)NC(=O)C(N)Cc1c[nH]c2ccccc12` (stereo not shown) [1a]: the “activity against Gram-positive bacterial strains” value in [1] is recorded as “moderate activity”. Moreover, in data set [2], the “% H, percentage hemolysis of human RBCs” value came out at 4%. Further, the “change in relative fluorescence unit (RFU), membrane depolarization” value in the data set with MRSA is on record as “only minor increase”. In addition, the “MIC MRSA (ATCC 33591)” value in data set [3] (MHB, 37° C.) is 227.2 µg/mL (≈ 395 µM). The “MIC S. aureus (ATCC 29213)” value in the data set on S. aureus (ATCC 29213) (MHB, 18 h, 37° C.) worked out at 0.1136 µg/mL (≈ 0.198 µM). Also, the “MIC S. epidermidis (ATCC 12228)” value in data set [4] (MHB, 18 h, 37° C.) came to 113.6 µg/mL (≈ 198 µM). Besides, the “MIC E. facaelis (ATCC 7080)” value in data set [5] was 0.4545 µg/mL (≈ 0.791 µM).
Consider `CN[C@H](CC(C)C)C(=O)N[C@H]1C(=O)N[C@@H](CC(N)=O)C(=O)N[C@H]2C(=O)N[C@H]3C(=O)N[C@H](C(=O)N[C@H](C(=O)O)c4cc(O)cc(O)c4-c4cc3ccc4O)[C@H](O)c3ccc(c(Cl)c3)Oc3cc2cc(c3O[C@@H]2O[C@H](CO)[C@@H](O)[C@H](O)[C@H]2O[C@H]2C[C@](C)(N)[C@H](O)[C@H](C)O2)Oc2ccc(cc2Cl)[C@H]1O` [VAN, vancomycin, reference compound], for which the “confocal observation of mature biofilm” value in [6] (10×MICb) is on record as “little effect”; in data set [6] (20×MICb), “slight decrease in the height of mature biofilm”. Moreover, the “average thickness of biofilm, biofilm formation” value in data set [6] (MICb, control 14.3±1.4 μm) came to 11.4±2.9 μm. The “thickness of biofilm, biofilm formation” value in data set [6] (sub-MICb, control 14.3±1.4 μm) is recorded as “unable to reduce biofilm thickness”. Further, in data set [7], the “growth inhibition of Gram-negative bacterial strains” value is recorded as “ineffective”. The “activity against Staphylococcus species” value in the data set with Staphylococcus species is on record as “potent growth inhibition”. Further, the MIC (as a rule, the lowest concentration that inhibits growth of the organism) in data set [8] came out at 0.114 µg/mL (≈ 0.0784 µM); in [3] (Staphylococcus aureus, ATCC 33591 / MRSA, read-out: MIC MRSA (ATCC 33591)) it was 0.0008 µg/mL (≈ 0.000552 µM); with S. aureus (ATCC 29213) (Staphylococcus aureus, ATCC29213, 18 h, read-out: MIC S. aureus (ATCC 29213)) it was 0.0004 µg/mL (≈ 0.000276 µM); in data set [4] (Staphylococcus epidermidis, ATCC12228, 18 h, read-out: MIC S. epidermidis (ATCC 12228)), 0.0004 µg/mL (≈ 0.000276 µM); in data set [10], 0.0008 µg/mL (≈ 0.000552 µM); in [11], 0.0568 µg/mL (≈ 0.0392 µM). For the same molecule, in data set [9], the viability at 20 µg/mL is 77.7 ± 7%. Further, the “increase in MIC after 17 passages” value in the data set on S. aureus (ATCC 33591) is 4 fold. Also, the “MICb, planktonic MIC in biofilm media” value in the data set with MRSA (ATCC 33591) was determined as 0.8 µg/mL.
